In ChEMBL document CHEMBL2380196, “New anticancer active and selective phenylene-bisbenzothiazoles: synthesis, antiproliferative evaluation and DNA binding” (Eur J Med Chem, 2013):
Calls of active or inactive are those of the source. The rule behind the calls is not given here.

Tests used:
[1] = target: T1, DNA topoisomerase 1 (Homo sapiens) (UniProt P11387); assay: Inhibition of human topoisomerase 1-mediated supercoiled pUC19 DNA relaxation at 1 to 50 uM after 45 mins by agarose gel electrophoresis
T1 sequence (whole entry): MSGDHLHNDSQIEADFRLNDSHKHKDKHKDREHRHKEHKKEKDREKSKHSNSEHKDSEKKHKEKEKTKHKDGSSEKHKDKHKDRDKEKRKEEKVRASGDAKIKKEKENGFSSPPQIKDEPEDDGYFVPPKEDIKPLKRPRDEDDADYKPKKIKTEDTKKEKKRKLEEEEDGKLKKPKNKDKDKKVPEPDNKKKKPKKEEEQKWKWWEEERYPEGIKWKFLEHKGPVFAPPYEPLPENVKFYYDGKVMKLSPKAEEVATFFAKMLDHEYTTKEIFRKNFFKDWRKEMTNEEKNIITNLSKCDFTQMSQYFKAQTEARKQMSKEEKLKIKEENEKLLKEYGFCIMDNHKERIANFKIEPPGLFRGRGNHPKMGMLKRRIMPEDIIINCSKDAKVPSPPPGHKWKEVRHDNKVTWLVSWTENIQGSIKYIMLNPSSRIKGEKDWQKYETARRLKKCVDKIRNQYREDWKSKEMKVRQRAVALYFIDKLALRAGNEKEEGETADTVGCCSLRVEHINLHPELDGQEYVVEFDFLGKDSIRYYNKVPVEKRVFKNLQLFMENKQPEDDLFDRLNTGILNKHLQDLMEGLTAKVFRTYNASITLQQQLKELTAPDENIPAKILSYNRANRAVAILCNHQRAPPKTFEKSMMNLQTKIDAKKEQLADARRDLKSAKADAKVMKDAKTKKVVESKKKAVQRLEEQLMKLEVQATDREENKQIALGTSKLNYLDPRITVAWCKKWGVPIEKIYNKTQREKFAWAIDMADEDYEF

DNA = assay: Binding affinity to calf thymus DNA at 50 uM by Circular dichroism spectra analysis; type: nucleic-acid assay; conditions: Bos taurus
HeLa [2] = assay: Cell cycle arrest in human HeLa cells assessed as accumulation in sub-G1 phase at 10 uM after 48 hrs using propidium iodide staining by flow cytometry relative to control; type: functional
HeLa [3] = assay: Cell cycle arrest in human HeLa cells assessed as accumulation in S phase at 5 uM after 48 hrs using propidium iodide staining by flow cytometry relative to control; type: functional
HeLa [4] = assay: Cell cycle arrest in human HeLa cells assessed as accumulation in G1 phase at 10 uM after 24 hrs using propidium iodide staining by flow cytometry relative to control; type: functional
HeLa [5] = assay: Cell cycle arrest in human HeLa cells assessed as accumulation in sub-G1 phase at 10 uM after 24 hrs using propidium iodide staining by flow cytometry relative to control; type: functional
HeLa [6] = assay: Cell cycle arrest in human HeLa cells assessed as accumulation in S phase at 5 uM after 24 hrs using propidium iodide staining by flow cytometry relative to control; type: functional
HeLa [7] = assay: Cell cycle arrest in human HeLa cells assessed as accumulation in G1 phase at 5 uM after 24 hrs using propidium iodide staining by flow cytometry relative to control; type: functional
HeLa [8] = assay: Cell cycle arrest in human HeLa cells assessed as accumulation in sub-G1 phase at 5 uM after 24 hrs using propidium iodide staining by flow cytometry relative to control; type: functional
MIA PaCa-2 [9] = assay: Cell cycle arrest in human MIAPaCa2 cells assessed as accumulation in G2/M phase at 10 uM after 48 hrs using propidium iodide staining by flow cytometry relative to control; type: functional
MIA PaCa-2 [10] = assay: Cell cycle arrest in human MIAPaCa2 cells assessed as accumulation in S phase at 10 uM after 48 hrs using propidium iodide staining by flow cytometry relative to control; type: functional
MIA PaCa-2 [11] = assay: Cell cycle arrest in human MIAPaCa2 cells assessed as accumulation in G2/M phase at 5 uM after 48 hrs using propidium iodide staining by flow cytometry relative to control; type: functional
MIA PaCa-2 [12] = assay: Cell cycle arrest in human MIAPaCa2 cells assessed as accumulation in sub-G1 phase at 5 uM after 48 hrs using propidium iodide staining by flow cytometry relative to control; type: functional
MIA PaCa-2 [13] = assay: Cell cycle arrest in human MIAPaCa2 cells assessed as accumulation in S phase at 10 uM after 24 hrs using propidium iodide staining by flow cytometry relative to control; type: functional
MIA PaCa-2 [14] = assay: Cell cycle arrest in human MIAPaCa2 cells assessed as accumulation in sub-G1 phase at 10 uM after 24 hrs using propidium iodide staining by flow cytometry relative to control; type: functional
MIA PaCa-2 [15] = assay: Cell cycle arrest in human MIAPaCa2 cells assessed as accumulation in S phase at 5 uM after 24 hrs using propidium iodide staining by flow cytometry relative to control; type: functional
MIA PaCa-2 [16] = assay: Cell cycle arrest in human MIAPaCa2 cells assessed as accumulation in sub-G1 phase at 5 uM after 24 hrs using propidium iodide staining by flow cytometry relative to control; type: functional
SK-BR-3 [17] = assay: Cell cycle arrest in human SKBR3 cells assessed as accumulation in S phase at 10 uM after 48 hrs using propidium iodide staining by flow cytometry relative to control; type: functional
SK-BR-3 [18] = assay: Cell cycle arrest in human SKBR3 cells assessed as accumulation in sub-G1 phase at 10 uM after 24 hrs using propidium iodide staining by flow cytometry relative to control; type: functional
SW-620 [19] = assay: Antiproliferative activity against human SW620 cells after 72 hrs by MTT assay; type: functional, cell-based; conditions: SW-620, 72 h; for CC50: read-out: LC50 (the source's name)
MCF7 = assay: Antiproliferative activity against human MCF7 cells after 72 hrs by MTT assay; type: functional, cell-based; conditions: MCF7, 72 h; for CC50: read-out: LC50 (the source's name)
[20] = Binding affinity to DNA (unknown origin) after 15 mins by DNase I footprinting assay
SW-620 [21] = assay: Induction of apoptosis in human SW620 cells at 10 uM after 48 hrs using propidium iodide/Annexin-V staining by flow cytometry relative to control; type: functional
SW-620 [22] = assay: Cell cycle arrest in human SW620 cells assessed as accumulation in S phase at 10 uM after 48 hrs using propidium iodide staining by flow cytometry relative to control; type: functional
SW-620 [23] = assay: Cell cycle arrest in human SW620 cells assessed as accumulation in S phase at 5 uM after 48 hrs using propidium iodide staining by flow cytometry relative to control; type: functional
SW-620 [24] = assay: Cell cycle arrest in human SW620 cells assessed as accumulation in G1 phase at 5 uM after 48 hrs using propidium iodide staining by flow cytometry relative to control; type: functional
SW-620 [25] = assay: Cell cycle arrest in human SW620 cells assessed as accumulation in sub-G1 phase at 5 uM after 48 hrs using propidium iodide staining by flow cytometry relative to control; type: functional
SW-620 [26] = assay: Cell cycle arrest in human SW620 cells assessed as accumulation in G2/M phase at 10 uM after 24 hrs using propidium iodide staining by flow cytometry relative to control; type: functional
SW-620 [27] = assay: Cell cycle arrest in human SW620 cells assessed as accumulation in S phase at 10 uM after 24 hrs using propidium iodide staining by flow cytometry relative to control; type: functional
SW-620 [28] = assay: Cell cycle arrest in human SW620 cells assessed as accumulation in S phase at 5 uM after 24 hrs using propidium iodide staining by flow cytometry relative to control; type: functional

| Compound | Activity (DNA) | Activity (HeLa [2]) [%] | Activity (HeLa [3]) [%] | Activity (HeLa [4]) [%] | Activity (HeLa [5]) [%] | Activity (HeLa [6]) [%] | Activity (HeLa [7]) [%] | Activity (HeLa [8]) [%] | Activity (MIA PaCa-2 [9]) [%] | Activity (MIA PaCa-2 [10]) [%] | Activity (MIA PaCa-2 [11]) [%] | Activity (MIA PaCa-2 [12]) [%] | Activity (MIA PaCa-2 [13]) [%] | Activity (MIA PaCa-2 [14]) [%] | Activity (MIA PaCa-2 [15]) [%] | Activity (MIA PaCa-2 [16]) [%] | Activity (SK-BR-3 [17]) [%] | Activity (SK-BR-3 [18]) [%] | IC50 (SW-620 [19]) [µM] | CC50 (SW-620 [19]) [µM] | further results |
| --- | --- | --- | --- | --- | --- | --- | --- | --- | --- | --- | --- | --- | --- | --- | --- | --- | --- | --- | --- | --- | --- |
| Cl.Cl.c1cc2nc(-c3ccc(-c4nc5ccc(C6=NCCN6)cc5s4)cc3)sc2cc1C1=NCCN1 | inactive | 23.2 | 49.6 | 34.2 | 15.5 | 44.5 | 42 | 9.9 | 18.4 | 40.9 | 18.4 | 35.7 | 40.1 | 33.1 | 55 | 34.4 | 42.3 | 31.6 | 7.65 | > 100 | inhibition [1]: Active; IC50 (MCF7): 3.07 µM; CC50 (MCF7): > 100 µM |
| Cl.Cl.c1cc(-c2nc3ccc(C4=NCCN4)cc3s2)cc(-c2nc3ccc(C4=NCCN4)cc3s2)c1 | Active | 15.5 | 39.3 | 31.7 | 12.5 | 38.4 | 39.3 | 14.4 | 8.6 | 50.8 | 17.1 | 20.4 | 49.1 | 8.1 | 33.6 | 17.7 | 67.8 | 23.1 | 0.47 | 6.19 | Activity [20]: Active; Activity (SW-620 [21]): 95%; Activity (SW-620 [22]): 69.6%; Activity (SW-620 [23]): 48.6%; Activity (SW-620 [24]): 36.7%; Activity (SW-620 [25]): 24.8%; Activity (SW-620 [26]): 23.9%; Activity (SW-620 [27]): 65.6%; Activity (SW-620 [28]): 46.6%; IC50 (MCF7): > 100 µM; CC50 (MCF7): 5.3 µM |
